Laboratory results as given in PubChem BioAssay (NCI).
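The compound was tested at five concentrations on cells cultured in 96-well plates, with a 48-hour exposure period. TGI: total growth inhibition.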

How the values were obtained:
Test in all cases: DTP human tumour cell line panel, 48 h
NCI-H226 lung = test system: NCI-H226 lung
HCC-2998 colon = test system: HCC-2998 colon
NCI-H522 lung = test system: NCI-H522 lung
NCI/ADR-RES ovarian = test system: NCI/ADR-RES ovarian
SF-295 CNS = test system: SF-295 CNS
MDA-MB-435 = test system: MDA-MB-435
786-0 renal = test system: 786-0 renal
M14 melanoma = test system: M14 melanoma
PC-3 prostate = test system: PC-3 prostate
HS 578T breast = test system: HS 578T breast
T-47D breast = test system: T-47D breast

Compound | TGI (NCI-H226 lung) | TGI (HCC-2998 colon) | TGI (NCI-H522 lung) | TGI (NCI/ADR-RES ovarian) | TGI (SF-295 CNS) | TGI (MDA-MB-435) | TGI (786-0 renal) | TGI (M14 melanoma) | TGI (PC-3 prostate) | TGI (HS 578T breast) | TGI (T-47D breast)
N/C(=N\N=C/c1c(O)cc(O)cc1O)NO | > 100 µM | > 100 µM | > 100 µM | > 100 µM | > 100 µM |  |  |  |  |  | 
CC1(C)CC(=O)C2=C(C1)NC(=S)C(C#N)C2c1ccccc1 (centres undefined) | > 100 µM | > 100 µM | > 100 µM | > 100 µM | > 100 µM | > 100 µM | > 100 µM | > 100 µM | > 100 µM | > 100 µM | 
CC(=O)N1CCOC12N=NC(C)(C)O2 (centres undefined) |  | > 100 µM | > 100 µM | > 100 µM | > 100 µM | > 100 µM | > 100 µM | > 100 µM | > 100 µM | > 100 µM | > 100 µM
COc1ccc(NCn2nc(CCCCCCCCc3nn(CNc4ccc(OC)cc4)c(=S)o3)oc2=S)cc1 | > 100 µM | > 100 µM | > 100 µM | > 100 µM | > 100 µM | > 100 µM | > 100 µM | > 100 µM | > 100 µM |  | 
C=C1C(=O)OC2C[C@@]3(C)CCCC(=C)C3CC12 (some centres undefined) | 26 µM | 26.7 µM | 3.65 µM |  | 23.6 µM |  |  | 20.6 µM |  |  | 
CN1Cc2ccccc2C2(COc3ccccc3C2=O)C1 (centres undefined) | > 100 µM | > 100 µM | > 100 µM |  | > 100 µM |  |  | > 100 µM |  |  | 
C/C(=N\Nc1nc2cc(F)ccc2s1)c1ccccn1 |  |  | 2.62 µM | 0.12 µM | 4.67 µM | > 100 µM | > 39 µM | 4.07 µM | 10.4 µM |  | > 100 µM
CC(C)(C)OC(=O)NCC(c1c[nH]c2ccccc12)c1c[nH]c2ccccc12 | 44 µM |  | 39.3 µM | 51.3 µM | 32.8 µM | 31.7 µM | 32 µM | 29.1 µM | 29.5 µM | 57.8 µM | 36.5 µM
COc1cc(/C=C2\N=C(c3ccccc3)N(c3cc4cc(Sc5ccccc5)ccc4[nH]3)C2=O)ccc1O | > 50 µM | > 50 µM | > 50 µM | 36.1 µM |  | 5.56 µM | > 50 µM | > 50 µM |  |  | > 50 µM
Cc1ccc(N2Cc3c(ccc4ccccc34)OP2(=S)N2CCCC2)cc1 (centres undefined) | > 100 µM | > 100 µM | > 100 µM | > 100 µM | > 100 µM |  |  |  |  |  | 
C=CCN1C(=O)C[C@H](Cc2ccccc2)NC(=O)C[C@H](Cc2ccccc2)N(CC=C)C(=O)C[C@H](Cc2ccccc2)NC(=O)C[C@@H]1Cc1ccccc1 | > 100 µM |  |  | > 100 µM | > 100 µM | > 100 µM | > 100 µM | > 100 µM | > 100 µM | > 100 µM | > 100 µM
O=Cn1c2ccccc2c2ccccc21 |  | > 100 µM | > 100 µM |  | > 100 µM |  | > 100 µM | > 100 µM |  |  | 
Cc1c2oc(=O)c(C#N)cc2c2ccccn12 | > 100 µM | > 100 µM |  | > 100 µM | 40.7 µM | > 100 µM | > 100 µM | > 100 µM | > 100 µM | > 100 µM | > 100 µM
